{"source": "patent US10251894B2", "about": "“Anticonvulsant activity of steroids” (The Regents of the University of California, priority 2012, dated 2019)", "key": {"[1]": {"test_system": "6 Hz electrical stimulus seizures", "test": "6-Hz seizure test (6-Hz electrical-stimulation, 32 mA, 3 s, model)", "assay_type": "in vivo, mouse", "details": "mice", "procedure": "(§1) The mouse 6 Hz and pentylenetetrazol seizure models were used. Solutions of 5α,3α-P were made in 6% (0.5 and 1.5 mg/ml) sulfobutylether-β-cyclodextrin sodium salt (Captisol®) in 0.9% saline. The solutions were injected i.v. or i.m. (1, 2 and 30 min or 2 and 30 min, respectively) prior to administration of the 6 Hz electrical stimulus or PTZ (80 mg/kg, i.p.). […] Anticonvulsant activity was assessed by the delay in onset of seizure signs. Allopregnanolone plasma levels in rats were determined by LC-MS.\n(§2) Animals. Male NIH Swiss mice (22-30 g) served as subjects, and all procedures used in these studies were conducted in accordance with the University of California, Davis, Institutional Animal Care and Use Committee the Animal Care and Use policies in strict compliance with the Guide for the Care and Use of Laboratory Animals of the National Research Council (National Academy Press, Washington, D.C.; on the internet at nap.edu/readingroom/books/labrats/).\n(§3) Test Substances and Drug Administration. Allopregnanolone (3α-hydroxy-5α-pregnan-20-one; 5α,3α-P) was synthesized by a SAFC Pharma Inc, Madison, Wis., USA and Captisol (sulfobutylether-beta-cyclodextrin sodium salt) was provided by Ligand Pharmaceuticals, Inc. La Jolla, Calif., USA. Solutions of 5α,3α-P were made in 6% (0.5 and 1.5 mg/ml) or 24% ([…]) sulfobutylether-β-cyclodextrin sodium salt (Captisol®) in 0.9% saline. The volumes used for all injections were 10-20 ml/kg of body weight. In order to establish time courses for protection by 5α,3α-P in the 6-Hz electrical-stimulation (32 mA, 3 s) model, 5α,3α-P (0.5-6 mg/kg) was administered intravenously (i.v.), intramuscularly (i.m.), subcutaneously (s.c.) or orally (p.o.) before electrical stimulation. In the PTZ seizure test, 5α,3α-P or vehicle were administered i.v. or i.m. 1, 2 or 30 min before PTZ.\n6-Hz Seizure Test (Kaminski, et al., Epilepsia (2004) 45:1-4): 3-s corneal stimulation (200-μs duration, 32-mA monopolar rectangular pulses at 6 Hz) was delivered by a constant-current device (ECT Unit 5780; Ugo Basile, Comerio, Italy). […] The experimental end point was protection against the seizure: an animal was considered to be protected if it resumed its normal exploratory behavior within 10 s of stimulation."}, "[2]": {"test": "Plasma allopregnanolone after single i.v. injection (LC-MS)", "assay_type": "in vivo, rat", "details": "rats", "procedure": "FIG. 10 illustrates a Time—concentration profile for plasma allopregnanolone (5α,3α-P) after single i.v. injection in rats. Rats bearing indwelling jugular catheters received single i.v. injection of 5α,3α-P or vehicle and serial blood samples were withdrawn at 1, 2, 10,15, 30, 60 and 120 min after injection. Plasma was assayed for 5α,3α-P by LC-MS. Each point represents at least 4 animals.\nas §1\nSurgery and Blood Collection. Male rats were implanted with indwelling jugular catheters as described (Baumann, et al., J Neurosci. (1998) 18: 9069-77). Animals were allowed to recover for at least one week. Experiments were carried out while the animal resided in its home cage. Rats received i.v. injection of vehicle or 5α,3α-P and serial blood samples were withdrawn into chilled tubes at 1, 2, 10,15, 30, 60 and 120 min after i.v. injection. 5α,3α-P and D4-5α,3α-P (internal standard) were extracted with SPE method from rat's plasma. The extracted 5α,3α-P and D4-5α,3α-P were quantified with ultra-performance liquid chromatography (UPLC)/Atmospheric-pressure chemical ionization (APCI)/tandem mass spectrometry (MS/MS)."}, "[3]": {"test_system": "PTZ (80 mg/kg, i.p.) seizures", "test": "Pentylenetetrazol (PTZ) seizure test", "assay_type": "in vivo, mouse", "details": "mice", "procedure": "as §1, §2, §3\nThe time of onset of myoclonic jerks, clonus and tonic extension was recorded.\nData Analysis. Results are expressed as mean±S.E.M.; the significance of the difference in the responses of treatment groups with respect to control is based on one-way analysis of variance (ANOVA) followed by specific post hoc comparisons using Dunnett's test. Differences were considered statistically significant when the probability of error was less than 0.05 (p<0.05)."}, "[4]": {"details": "i.v. bolus, 0.5 and 1.0 mg/kg pooled"}, "[5]": {"details": "0.5 mg/kg i.v. 1 min before PTZ"}}, "data": [{"molecule": "CC(=O)[C@H]1CC[C@H]2[C@@H]3CC[C@H]4C[C@H](O)CC[C@]4(C)[C@H]3CC[C@]12C", "note": "[5α,3α-P, 3α-hydroxy-5α-pregnan-20-one]", "values": [{"measurement": "duration of protective activity in the 6 Hz test", "setting": "[1]; i.m. 3 mg/kg", "value": "< 2", "unit": "h"}, {"measurement": "onset of protective activity in the 6 Hz test", "setting": "[1]; i.m. 3 mg/kg", "value": "≤ 2", "unit": "min"}, {"measurement": "protective activity in the 6 Hz test at 30 min", "setting": "[1]; i.v. 1.5 mg/kg, 30 min after infusion", "value": "inactive"}, {"measurement": "time after injection with protective activity in the 6 Hz test", "setting": "[1]; i.v. infusion 1.5 mg/kg", "value": "1 to 15", "unit": "min"}, {"measurement": "bioavailability after oral administration", "setting": "[1]; p.o. in the 6-Hz model, inferred from time course", "value": "Low bioavailability"}, {"measurement": "mean peak plasma level (2 min)", "setting": "[2]; i.v. bolus 0.5 mg/kg", "value": 337, "unit": "ng/mL"}, {"measurement": "mean peak plasma level (2 min)", "setting": "[2]; i.v. bolus 1.0 mg/kg", "value": 746, "unit": "ng/mL"}, {"measurement": "pooled mean halftime, first component", "setting": "[2]; [4]", "value": 2, "unit": "min"}, {"measurement": "pooled mean halftime, second component", "setting": "[2]; [4]", "value": 22, "unit": "min"}, {"measurement": "delay of seizure onset in the PTZ model", "setting": "[3]; 0.1 mg/kg i.v., all pretreatment times (1, 2 and 30 min)", "value": "failed to significantly delay seizure onset"}, {"measurement": "animals protected from tonic seizures", "setting": "[3]; 0.25 mg/kg i.m. 2 min before PTZ", "value": 0, "unit": "%"}, {"measurement": "animals protected from tonic seizures", "setting": "[3]; 0.5 mg/kg i.m. 2 min before PTZ", "value": 50, "unit": "%"}, {"measurement": "animals in which tonic seizures and mortality were prevented", "setting": "[3]; [5]", "value": 62.5, "unit": "%"}, {"measurement": "delay for myoclonic jerks and clonic seizures", "setting": "[3]; [5]", "value": "marked delay"}, {"measurement": "animals in which tonic seizures were prevented", "setting": "[3]; 0.5 mg/kg i.v. 2 min before PTZ", "value": 25, "unit": "%"}, {"measurement": "animals protected from tonic seizures", "setting": "[3]; 1.5 mg/kg i.m. 2 min before PTZ", "value": 100, "unit": "%"}, {"measurement": "protection against tonic seizures", "setting": "[3]; 1.5 mg/kg i.m. 30 min before PTZ", "value": "significant protection"}, {"measurement": "prevention of tonic seizures and mortality", "setting": "[3]; 1.5 mg/kg i.v. 1 and 2 min before PTZ", "value": "completely prevented"}, {"measurement": "protection against tonic seizures", "setting": "[3]; 1.5 mg/kg i.v. 30 min before PTZ", "value": "inactive"}]}]}
